Measurements from patent US5698574A, “5-membered heteroaryl-oxazolidinones” (Bayer Aktiengesellschaft, priority 1994, dated 1997).
≈ marks a conversion by molar mass, not a printed value.

Columns and labels:
Experiment in all cases: minimum inhibitory concentration (MIC), series dilution on Iso-Sensitest agar
Assay type in all cases: cell-based
Staph 48N = conditions: 37° C., about 20 hours, about 10^4 colony-forming particles per point
Experimental: (§1) The minimum inhibitory concentrations (MIC) were determined by the series dilution method on Iso-Sensitest agar (Oxoid). A series of agar plates which contained concentration of the active compound which decreased by two-fold dilution in each case was prepared for each test substance. The agar plates were inoculated with a Multipoint inoculator (Denley). Overnight cultures of the pathogens which had been diluted beforehand such that each inoculation point contained about 10^4 colony-forming particles were used for the inoculation. The inoculated agar plates were incubated at 37° C. and the germ growth was read off alter about 20 hours. The MIC value (μg/ml) indicates the lowest concentration of active compound at which no growth was detectable with the naked eye.

E. coli Neumann = conditions: Escherichia coli, 37° C., about 20 hours, about 10^4 colony-forming particles per point
Experimental: as §1

Klebs. 57 USA = conditions: 37° C., about 20 hours, about 10^4 colony-forming particles per point
Experimental: as §1

Psdm. Bonn = conditions: 37° C., about 20 hours, about 10^4 colony-forming particles per point
Experimental: as §1

Staph 25701 = conditions: 37° C., about 20 hours, about 10^4 colony-forming particles per point
Experimental: as §1

Staph 9TV = conditions: 37° C., about 20 hours, about 10^4 colony-forming particles per point
Experimental: as §1

Staph 133 = conditions: 37° C., about 20 hours, about 10^4 colony-forming particles per point
Experimental: as §1

SMILES | MIC (Staph 48N) [µg/mL] | MIC (E. coli Neumann) [µg/mL] | MIC (Klebs. 57 USA) [µg/mL] | MIC (Psdm. Bonn) [µg/mL] | MIC (Staph 25701) [µg/mL] | MIC (Staph 9TV) [µg/mL] | MIC (Staph 133) [µg/mL]
CC(=O)NC[C@H]1CN(c2cc3cc(Br)ccc3s2)C(=O)O1 [Example 22] | 2 (≈ 5.42 µM) | > 32 | > 32 | > 32 | 1 (≈ 2.71 µM) | 2 (≈ 5.42 µM) | 4 (≈ 10.8 µM)
CC(=O)NC[C@H]1CN(c2cc(Br)cs2)C(=O)O1 [Example 26] | 8 (≈ 25.1 µM) | > 32 | > 32 | > 32 | 8 (≈ 25.1 µM) | 8 (≈ 25.1 µM) | 8 (≈ 25.1 µM)
CC(=O)NC[C@H]1CN(c2ccc(-c3ccc(C)cc3)s2)C(=O)O1 [Example 39, (5S)-3-{2[5-(4-Methylphenyl)]thiophenyl}-5-acetyl-aminomethyl-oxazolidin-2-one] | 2 (≈ 6.05 µM) | > 32 | > 32 | > 32 | 2 (≈ 6.05 µM) | 1 (≈ 3.03 µM) | 2 (≈ 6.05 µM)
CC(=O)NC[C@H]1CN(c2ccc(-c3ccccc3C=O)s2)C(=O)O1 [Example 40, (5S)-3-{2[5-(2-Formylphenyl)]thiophenyl}-5-acetylamino-methyl-oxazolidin-2-one] | 4 (≈ 11.6 µM) | > 32 | > 32 | > 32 | 2 (≈ 5.81 µM) | 1 (≈ 2.9 µM) | 2 (≈ 5.81 µM)
CC(=O)NC[C@H]1CN(c2ccc(-c3csc(C=O)c3)s2)C(=O)O1 [Example 41] | 2 (≈ 5.71 µM) | > 32 | > 32 | > 32 | 2 (≈ 5.71 µM) | 2 (≈ 5.71 µM) | 2 (≈ 5.71 µM)
CC(=O)NC[C@H]1CN(c2ccc(-c3ccccc3)s2)C(=O)O1 [Example 42] | 4 (≈ 12.6 µM) | > 32 | > 32 | > 32 | 4 (≈ 12.6 µM) | 2 (≈ 6.32 µM) | 2 (≈ 6.32 µM)
CC(=O)NC[C@H]1CN(c2ccc(-c3cccc(C=O)c3)s2)C(=O)O1 [Example 43] | 1 (≈ 2.9 µM) | > 32 | > 32 | > 32 | 1 (≈ 2.9 µM) | 1 (≈ 2.9 µM) | 1 (≈ 2.9 µM)
CC(=O)NC[C@H]1CN(c2ccc(-c3ccc(C=O)cc3)s2)C(=O)O1 [Example 44] | 0.25 (≈ 0.726 µM) | > 32 | > 32 | > 32 | 0.25 (≈ 0.726 µM) | 0.25 (≈ 0.726 µM) | 0.25 (≈ 0.726 µM)
CC(=O)NC[C@H]1CN(c2ccc(-c3ccc(C(C)=O)cc3)s2)C(=O)O1 [Example 46] | 2 (≈ 5.58 µM) | > 32 | > 32 | > 32 | 2 (≈ 5.58 µM) | 0.5 (≈ 1.4 µM) | 2 (≈ 5.58 µM)
CC(=O)NC[C@H]1CN(c2ccc(-c3ccc(F)cc3)s2)C(=O)O1 [Example 51] | 2 (≈ 5.98 µM) | > 32 | > 32 | > 32 | 2 (≈ 5.98 µM) | 1 (≈ 2.99 µM) | 4 (≈ 12 µM)
CC(=O)NC[C@H]1CN(c2ccc(-c3cccc(N)c3)s2)C(=O)O1 [Example 56] | 4 (≈ 12.1 µM) | > 32 | > 32 | > 32 | 4 (≈ 12.1 µM) | 4 (≈ 12.1 µM) | 8 (≈ 24.1 µM)
CC(=O)NC[C@H]1CN(c2cc(-c3cccc(C=O)c3)cs2)C(=O)O1 [Example 59] | 2 (≈ 5.81 µM) | > 32 | > 32 | > 32 | 2 (≈ 5.81 µM) | 1 (≈ 2.9 µM) | 4 (≈ 11.6 µM)
CC(=O)NC[C@H]1CN(c2cc(-c3ccc(C=O)cc3)cs2)C(=O)O1 [Example 60] | 8 (≈ 23.2 µM) | > 32 | > 32 | > 32 | 8 (≈ 23.2 µM) | 8 (≈ 23.2 µM) | 16 (≈ 46.5 µM)
CC(=O)NC[C@H]1CN(c2ccc(-c3ccc(CO)cc3)s2)C(=O)O1 [Example 101, (5S)-3-(2-[5-(4-hydroxymethyl)phenyl]thiophenyl)-5-acetylamino-methyl-oxazolidin-2-one] | 2 (≈ 5.77 µM) | > 32 | > 32 | > 32 | 2 (≈ 5.77 µM) | 2 (≈ 5.77 µM) | 2 (≈ 5.77 µM)
CC(=O)NC[C@H]1CN(c2ccc(-c3cccc(CO)c3)s2)C(=O)O1 [Example 102] | 8 (≈ 23.1 µM) | > 32 | > 32 | > 32 | 8 (≈ 23.1 µM) | 8 (≈ 23.1 µM) | 8 (≈ 23.1 µM)
